From patent US8647824B2, “Microbial reductive dehalogenation of vinyl chloride” (The Board of Trustees of the Leland Stanford Junior …, priority 2004, dated 2014)
Values joined by “and” are separate entries in the source; they are usually repeats but may differ in a detail not shown here. Identical values can stand only once. Marks after values point to notes of the source that are not given here.

Experiments:
[1] = test system: highly enriched culture of strain VS; test: Batch dechlorination and growth, highly enriched culture of strain VS; assay type: cell-based, Dehalococcoides species strain VS; conditions: for Final VC rate / Final cells: after utilization of the substance; for Final VC rate / Mass dechlorinated: duplicate bottles; for Final cells: duplicates, computed from VC rate; for Initial VC rate: before utilization of the substance, average and range of replicates; for Growth yield by competitive PCR: strain VS grown on the substance
Description: (§1) The purpose of the second study was to compare dechlorination rates of PCE, TCE and DCE between the three different cultures that grew on VC (Victoria, KB-1/VC and Pinellas). The development of inocula here was performed with VC, just as in the first study. For the growth and substrate utilization experiments, triplicate bottles were set up for each culture containing 1 mL of inoculum and either neat PCE (0.4 μL), neat TCE (0.3 μL), saturated DCE solution (34 μL) or gaseous VC (200 μL). To further investigate TCE removal, bottles (120 mL) were filled with 20 mL of a highly enriched culture of strain VS made from the Victoria culture. Duplicate bottles were supplied with gaseous VC (50 μL on day 0, then 150 μL on day 3) or TCE (0.4 μL neat liquid). Dechlorination was followed until all VC or TCE was converted to ethene (day 12). The change in strain VS concentration during VC and TCE utilization was then determined both by competitive PCR and by an activity procedure evaluated previously for strain VS. In the activity procedure a non-growth limiting concentration of VC (150 μL) along with excess hydrogen is added to a culture and the initial dechlorination rate is measured (over <1 day). A good estimate of strain VS concentration can then be obtained using the previously determined strain VS maximum VC utilization rate (7.8×10^−10 μmol Cl^− (cell·d)^−1). The increase in strain VS concentration during TCE or VC utilization was determined with these two procedures on the culture before and after TCE and VC utilization.
Comparative dechlorination and growth kinetics. With mixed cultures, the concentration of organisms carrying out a particular reaction is generally unknown and difficult to determine. Thus, reaction rates with mixed cultures are generally reported in units that cannot be used for comparative purposes. For example, dechlorination rates have been reported in mass removal rate per microcosm or bottle, per unit liquid volume, per unit of total biomass or per unit of total protein. However, the approach described here allows us to make direct comparisons of basic dechlorination and growth kinetics between cultures. The main parameter used in this comparison is organism maximum growth rate, which is directly related to dechlorination kinetics. The maximum growth rate for each culture was determined from a least-squares model fit to experimental data. For this purpose, the dechlorination of TCE, DCE, and VC was modeled using Monod kinetics with competitive kinetics between the multiple electron acceptors involved in dechlorination (for the case when electron donor is non-rate-limiting):
Modeling approach. The above procedure was utilized to compare VC, DCE and TCE maximum growth rates between the Dehalococcoides like-microorganisms in the three cultures (strain VS, KB-1/VC and Pinellas). Previously determined VC and DCE half-velocity and competitive coefficients were included in this modeling approach (Table 2). Also, a previously determined decay coefficient (0.05 d^−1) for cells growing under optimal conditions (non-limiting electron acceptor and donor) was included. This leaves the maximum growth rates on individual chlorinated ethenes (μV, μD, or μT) as the only fitting parameters, which were determined, together with the 95% confidence interval) using non-linear least-squares fit to the experimental data.
DNA isolation and competitive PCR. For the Victoria, Pinellas, and KB-1/VC genomic DNA was extracted (1 mL) from the inoculum used in the VC growth comparison study and also from cultures in the comparative substrate utilization study following complete TCE dechlorination. DNA was extracted using a DNeasy® tissue system (Qiagen Inc, Valencia, Calif.), following the manufacture's instructions (final volume 200 μL). DNA was extracted from the D. ethenogenes strain 195 culture following dechlorination of DCE. […]

Pinellas culture = test: Batch dechlorination and growth kinetics, Pinellas culture; assay type: cell-based, Dehalococcoides-like microorganisms; conditions: for Maximum Growth Rate: 95% confidence interval
Excerpt: Stock cultures. The Victoria mixed culture, containing strain VS, was maintained in a closed continuously stirred tank reactor (CSTR) as previously described. A VC enrichment of this culture, maintained over 5 years, was also used in these investigations. Liquid cultures of the three other cultures evaluated (Pinellas, KB-1/VC, and Dehalococcoides ethenogenes strain 195) were kept in anaerobic bottles, stored in an anaerobic chamber (10% H2, 10% CO2, 80% N2). The bottles were amended with TCE (1-3 μL neat liquid), VC (250 μL gas), and PCE (1-3 μL neat liquid) being added to each, respectively, approximately every two weeks.
Batch studies. For the experimental portion of this research, two studies were undertaken, one a comparative VC growth study, and the other a comparative growth and substrate utilization study with different chlorinated ethenes. These studies compared the dechlorination abilities of Dehalococcoides ethenogenes strain 195 and the Dehalococcoides-like microorganisms in the three mixed cultures (Victoria, KB-1/VC, and Pinellas).
For the first study, a VC enriched inoculum was first developed for each of the three mixed cultures. Here, bottles (120 mL) were filled with 60 mL of anaerobic media in an anaerobic chamber as previously described, and inoculated with 200 μL of each stock culture. Gaseous VC (99.5%) was added with a gas tight syringe (200 μL). The cultures were then moved to a shaker (60-80 rpm) in an anaerobic chamber (20±2° C.). Immediately after 5 μmol of ethene was formed in a bottle, 200 μL of the culture was transferred to fresh media (60 mL), in triplicate, and VC was again added (200 μL). The inoculum for the growth study was that formed after exactly 4 μmol of ethene was produced following this second transfer. To compare growth rates on VC, a range in concentration of each inocula (0.1, 0.3, 1, 3, 9 mL) was transferred to fresh media (as above) to result in a liquid volume of 60 mL, and gaseous VC (200 μL) was added to each. […] Hydrogen served as the electron donor and was non-limiting (>3%) in all studies. Headspace samples were periodically removed by syringe (250 μL) for chlorinated ethene analyses.
as §1
Comparative dechlorination and growth kinetics. With mixed cultures, the concentration of organisms carrying out a particular reaction is generally unknown and difficult to determine. […]

[2] = test system: Victoria mixed culture, containing strain VS; conditions: traditional method of cell counting; cited from earlier work
[3] = test system: highly enriched culture of strain VS; conditions: previously determined; cited from earlier work

SMILES | Half velocity coefficient KT ([1]; Highly enriched culture) | Maximum Growth Rate ([1]; Highly enriched strain VS culture, 95% confidence interval) | Final VC rate [1] | Final cells [1] | Initial VC rate [1] | Mass dechlorinated [1] | Growth yield by competitive PCR [1] | Half velocity coefficient KT (Pinellas culture) | Maximum Growth Rate (Pinellas culture) | time to form 5 μmol of ethene (Pinellas culture; 200 μL VC) | growth rate determined previously by cell counting [2] | strain VS maximum VC utilization rate [3]
ClC=C(Cl)Cl [TCE, trichloroethene] | 12.4 ± 0.6 µM | 0.35 day⁻¹ and 0.35 ± 0.13 day⁻¹ | 312 µmol·days/L and 204 µmol·days/L | 4.0 × 10^11 cell L^−1 and 2.6 × 10^11 cell L^−1 | 28 ± 2^a nmol (d · L)^−1 | 10.94 µmol and 8.97 µmol | 4.7±0.3×10^8 cell/μmol Cl^− | 10.5 ± 0.7 µM | 0.49 day⁻¹ and 0.49 ± 0.03 day⁻¹ |  |  | 
C=CCl [VC, vinyl chloride] |  |  | 228 µmol·days/L and 204 µmol·days/L | 2.9 × 10^11 cell L^−1 and 2.6 × 10^11 cell L^−1 | 28 ± 2^a nmol (d · L)^−1 | 10.39 µmol and 10.52 µmol | 5.2±0.4×10^8 cell/μmol Cl^− |  | 0.28 day⁻¹ and 0.28 ± 0.01 day⁻¹ | 21 days | 0.4 day⁻¹ | 7.8×10^−10 μmol Cl^− (cell·d)^−1
